The target of data set [1] is Free fatty acid receptor 1 (Homo sapiens, UniProt O14842). Put plainly: Antagonist activity at human GPR40 expressed HEK293 cells assessed as effect on intracellular calcium concentration by FLIPR assay. Type of data set: functional, cell-based.
The subject of data set [2] is Rattus norvegicus. Briefly: Clearance in iv dosed Sprague-Dawley rat. Type of data set: ADME, organism-based. The conditions noted are these: in vivo.
For data set [3], the system named is Liver microsomes. Put plainly: Metabolic stability in rat liver microsomes assessed as clearance. The class given is ADME, Microsome.
The test system of data set [4] is Rattus norvegicus. Briefly: Clearance in iv dosed bile duct cannulated rat. The conditions noted are these: in vivo. The class given is ADME, organism-based.
A short description of data set [5]: Drug level in bile of iv dosed bile duct cannulated rat. Type of data set: ADME, organism-based. The conditions noted are these: read-out: Drug uptake.
Data set [6] concerns Liver microsomes. Put plainly: (§1) Metabolic stability in human liver microsomes assessed as clearance. The conditions noted are these: microsomes. Type of data set: ADME, Microsome.
Data set [7] in a line: Metabolic stability in dog liver microsomes assessed as clearance. The class given is ADME, Canis lupus familiaris, Microsome.
A further data set relates to Canis familiaris. Briefly: Clearance in iv dosed dog. The class given is ADME, organism-based, Canis lupus familiaris. The conditions noted are these: in vivo.
A short description of data set [8]: as §1. Type of data set: ADME, Microsome. The conditions noted are these: liver microsomes.
The nature of data set [9]: Permeability from basolateral to apical side of the human Caco-2 membrane. The class given is ADME, cell-based. The conditions noted are these: read-out: permeability.
Data set [10] can be described thus: Volume of distribution in iv dosed Sprague-Dawley rat. The class given is ADME, organism-based. The conditions noted are these: in vivo.
Data set [11] is described as follows: Half life in iv dosed Sprague-Dawley rat. The conditions noted are these: in vivo. Type of data set: ADME, organism-based.
The nature of data set [12]: Permeability from apical to basolateral side of the human Caco-2 membrane. Type of data set: ADME, cell-based. The conditions noted are these: read-out: permeability.

Structures are written as SMILES. Where only a bound is given, the exact number is not on record here.

Chain of Free fatty acid receptor 1 (O14842 whole entry): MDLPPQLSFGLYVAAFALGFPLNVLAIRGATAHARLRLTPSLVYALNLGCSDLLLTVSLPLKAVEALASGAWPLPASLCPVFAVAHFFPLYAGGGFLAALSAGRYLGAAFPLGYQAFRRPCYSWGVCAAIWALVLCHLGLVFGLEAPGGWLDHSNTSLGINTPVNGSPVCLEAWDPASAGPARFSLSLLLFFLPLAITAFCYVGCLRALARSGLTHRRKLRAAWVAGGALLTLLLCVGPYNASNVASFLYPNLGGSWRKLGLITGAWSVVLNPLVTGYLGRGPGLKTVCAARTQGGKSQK

In the case of `CCCN1C(=O)c2ccccc2[C@@H](C(=O)O)[C@@H]1c1cc2ccccc2o1`, in [1], the IC50 worked out at 119 nM. In addition, the results for the clearance in the data set with Rattus norvegicus [2] and with Liver microsomes [3] were 3 mL/min/kg and 18 µL/min/mg, respectively.

As for `CC[C@H](C)CN1C(=O)c2ccccc2[C@@H](C(=O)O)[C@@H]1c1ccc(Cl)c(Cl)c1`, the IC50 in data set [1] was 13 nM. For the same compound, in the data set with Liver microsomes [3], the clearance was less than 14 µL/min/mg.

Regarding `CCC(CC)CN1C(=O)c2ccccc2[C@@H](C(=O)O)[C@@H]1c1ccc(Cl)c(Cl)c1`, the concentration for half-maximal inhibition (IC50) in data set [1] stood at 10 nM. For the same compound, in the data set with Liver microsomes [3], the clearance stood at 27 µL/min/mg.

Turning to `CCCN1C(=O)c2ccccc2[C@@H](C(=O)O)[C@@H]1c1ccc(Cl)c(Cl)c1`, the half-maximal inhibitory concentration (IC50) in data set [1] stood at 89 nM. Further, the clearance in the data set with Liver microsomes [3] was less than 14 µL/min/mg.

As for `CCCN1C(=O)c2ccccc2[C@@H](C(=O)O)[C@@H]1c1cccc(Cl)c1`, the IC50 in [1] worked out at 228 nM. The clearance with Rattus norvegicus [2] is 2.96 mL/min/kg; with Liver microsomes [3], less than 14 µL/min/mg.

In turn, `CCCN1C(=O)c2ccccc2[C@@H](C(=O)O)[C@@H]1c1cnc(O[C@H]2CC[C@@H](C)CC2)nc1` registered a clearance with Rattus norvegicus [4] of 136 mL/min/kg. Moreover, the dose excreted in [5] came to 69.9%.

In the case of `CCCN1C(=O)c2ccccc2[C@@H](C(=O)O)[C@@H]1c1ccc(O[C@H]2CC[C@@H](C)CC2)cc1`, in data set [1], the 50% inhibitory concentration (IC50) worked out at 10 nM. For the same compound, the clearance in the data set on Rattus norvegicus [4] was 84.5 mL/min/kg; in the data set with Liver microsomes [6], less than 12 µL/min/mg; in the data set on Liver microsomes [3] it was 274 µL/min/mg. For the same compound, the dose excreted in data set [5] amounted to 22.9%.

In the case of `CCN1C(=O)c2ccccc2[C@@H](C(=O)O)[C@@H]1c1ccc(Oc2ccccc2)cc1`, the half-inhibitory concentration (IC50) in data set [1] is 12 nM. Further, the clearance was 111 mL/min/kg in the data set with Rattus norvegicus [4], less than 9 µL/min/mg with Liver microsomes [6] and 97 µL/min/mg with Liver microsomes [3]. Besides, in data set [5], the dose excreted was found to be 13.9%.

Take `CCCN1C(=O)c2ccccc2[C@@H](C(=O)O)[C@@H]1c1ccc(Oc2cc(C)cc(C)c2)cc1`: in data set [1], the IC50 was found to be 2 nM. For the same compound, the clearance in the data set on Liver microsomes [6] stood at 21 µL/min/mg; in the data set on Liver microsomes [3], 46 µL/min/mg.

With `CCCN1C(=O)c2ccccc2[C@@H](C(=O)O)[C@@H]1c1ccc(Oc2ccc(C)c(C)c2)cc1`, the IC50 in data set [1] is 3 nM. For the same compound, the clearance is less than 8 µL/min/mg in the data set on Liver microsomes [6] and less than 14 µL/min/mg in the data set on Liver microsomes [3].

On to `CCCN1C(=O)c2ccccc2[C@@H](C(=O)O)[C@@H]1c1ccc(Oc2cc(Cl)cc(Cl)c2)cc1`, for which the clearance in the data set on Rattus norvegicus [4] came to 32.7 mL/min/kg; in the data set on Canis familiaris, 7.4 mL/min/kg. Further, the intrinsic clearance (microsomal CLint) in [7] was determined as 2.99 µL/min/mg. Besides, in data set [5], the dose excreted amounted to 64.6%.

Take `CN1C(=O)c2ccccc2[C@@H](C(=O)O)[C@@H]1c1ccc(Oc2ccccc2)cc1`: in data set [1], the IC50 amounted to 156 nM. Also, the clearance with Liver microsomes [3] amounted to 27 µL/min/mg.

As for `CCC(CC)CN1C(=O)c2ccccc2[C@@H](C(=O)O)[C@@H]1c1nc2ccccc2s1`, the IC50 in [1] amounted to 10 nM. For the same compound, in the data set on Liver microsomes [3], the clearance is less than 18 µL/min/mg.

Turning to `CCCN1C(=O)c2ccccc2[C@@H](C(=O)O)[C@@H]1c1ccc(OC)cc1`, the half-maximal inhibitory concentration (IC50) in [1] was 2100 nM. The clearance in the data set on Liver microsomes [6] was less than 8 µL/min/mg; in the data set on Liver microsomes [3], less than 14 µL/min/mg.

Take `CC[C@H](C)CN1C(=O)c2ccccc2[C@@H](C(=O)O)[C@@H]1c1cc2ccccc2o1`: the IC50 in [1] turned out to be 20 nM. In data set [8], the intrinsic metabolic clearance (microsomal CLint) was less than 8 µL/min/mg. For the same compound, in [9], the Papp B→A stood at 18.7 ×10⁻⁶ cm/s. For the same compound, in data set [10], the Vd came to 1.1 L/kg. Also, the half-life in data set [11] was 5.4 h. In addition, the clearance with Rattus norvegicus [2] was 4.3 mL/min/kg; in the data set with Liver microsomes [3], less than 14.1 µL/min/mg. In addition, in data set [12], the Papp A→B stood at 12 ×10⁻⁶ cm/s.

With `CCCN1C(=O)c2ccccc2[C@@H](C(=O)O)[C@@H]1c1ccc(OCc2ccccc2)cc1`, the IC50 in [1] came out at 96 nM. The results for the clearance with Liver microsomes [6], in the data set with Rattus norvegicus [2] and with Liver microsomes [3] were less than 8 µL/min/mg, 82.8 mL/min/kg and less than 16 µL/min/mg, respectively.

Regarding `CCCN1C(=O)c2ccccc2[C@@H](C(=O)O)[C@@H]1c1ccc(Oc2ccc(C(F)(F)F)cn2)cc1`, the IC50 in data set [1] turned out to be 29 nM. Besides, the clearance in the data set with Liver microsomes [6] was less than 8 µL/min/mg; in the data set on Liver microsomes [3], less than 14 µL/min/mg.

Regarding `O=C(O)[C@@H]1c2ccccc2C(=O)N(CC2CC2)[C@H]1c1ccc(Oc2ccccc2)cc1`, in data set [1], the IC50 stood at 4 nM. For the same compound, the clearance in the data set with Liver microsomes [3] amounted to 120 µL/min/mg.

Values taken from ChEMBL document CHEMBL1138453, “Synthesis and SAR of 1,2,3,4-tetrahydroisoquinolin-1-ones as novel G-protein-coupled receptor 40 (GPR40) antagonists” (Bioorg Med Chem Lett, 2009).
